Test results from US20230301947A1, “COMPOUND FOR PREVENTING AND TREATING PSYCHIATRIC DISORDERS AND USE THEREOF” (SHANGHAI INSTITUTE OF MATERIA MEDICA, CHINESE ACADEMY OF …, priority 2020, published 2023).

Legend:
C57 mice [1] = assay: Forced swimming experiment in normal mice; type: in vivo; details: C57 male mice, intraperitoneal; for immobility time in forced swimming test: compared with vehicle group
Description: (§1) The forced swimming test system is primarily used in antidepressant studies.
(§2) Experimental operation: Mice were individually placed in a cylindrical glass tank 30 cm high and 20 cm in diameter, with a water depth of 15 cm (20 cm for rats), so that the mice are unable to escape from the glass tank and their feet and tails can not touch the bottom of the tank. The water temperature was 23° C.-25° C. The mice were filmed for 6 minutes after entering the water. Since most of the mice were very active in the first two minutes, the last 4 minutes of immobility time were calculated (criteria for determining immobility: the mice stopped struggling in the water, immobility and fine limb movements to maintain balance or float). Groups of mice were operated in parallel.
CLA096: Three doses were set up in this example, the low, medium and high doses were 5 mg/kg, 20 mg/kg and 40 mg/kg, respectively. The compound was dissolved in 0.5% Tween-40 and sonicated, and should be used right after it was ready.
Fluoxetine (FLX): FLX with a dose of 10 mg/kg; dissolved in double distilled water, and should be used right after it was ready.

SD rats [2] = assay: Forced swimming test in rats (control and ACTH-induced refractory depression model); type: in vivo; details: 20 mg/kg intraperitoneal, tested 30 min after administration; for antidepressant effect in forced swimming: ACTH group SD rats (refractory depression model)
Description: as §1, §2
An animal model of refractory depression was induced in SD rats by continuous intraperitoneal injection of adrenocorticotropic hormone (ACTH) for 3 weeks. This model can block the effects of tricyclic antidepressants and some SSRIs antidepressants, but can not block the efficacy of ketamine and electroconvulsive therapy (ETC). Since ketamine and ETC have specific efficacy in refractory depression, this animal model can be used to preliminary evaluate whether the drug have efficacy in refractory depression.
1. SD rats in the model group (ACTG) were continuously injected with ACTH for 3 weeks (once/day), and the test drug was injected intraperitoneally 24 h after the last administration of ACTH. The rats in the control group (CON) were continuously injected intraperitoneally with 0.9% saline (once/day) and similarly the test drug was injected intraperitoneally 24 h after the last administration of saline.
3. After the open-field experiment, ACTH was continued to be injected, and after 24 h, the above test drug was injected intraperitoneally and forced swimming was tested 30 min after the administration.

SD rats [3] = assay: Open field test in rats (control and ACTH-induced refractory depression model); type: in vivo; details: normal animals and ACTH model animals (SD rats); 20 mg/kg intraperitoneal, tested 30 min after administration
Text: Open field test, also known as the open box test, is a method to evaluate the autonomous behavior, exploratory behavior and anxiety-like behavior of experimental animals in a novel environment. The frequency and duration of the normal activities, the fear of the open environment and the exploration of the new environment and other behaviors of the experimental animals in the open box are used to reflect the autonomous behavior and exploratory behavior of the experimental animals in the unfamiliar environment. The results of the open-field experiments were analyzed to evaluate the depression and anxiety-like behaviors of the animals.
Experimental operation: the experimental animals were placed in the behavior room 2 hours before the experiment. The animals were placed in the center of the bottom of a black plastic box (size 100*100*45 cm) during the experiment, while video filming was performed. The experiment time was 10 minutes and was conducted in a quiet environment. […] The video was analyzed using the animal spontaneous activity analysis software to obtain information of central area activity time (anxiety-like behavior), total distance of activities (exercise ability), and number of wall climbing (novel environment exploratory behavior) and the like, which can be used to judge the depression or anxiety-like behavior of the animal and degree thereof. […]

mice = assay: 14-day subacute toxicity test in mice; type: in vivo; details: male and female mice; 5, 50 and 100 mg/kg intraperitoneal, once a day, 14 days
Description: Test drug configuration: CLA096: Three doses were set up: 5 mg/kg, 50 mg/kg and 100 mg/kg, respectively.

TREK-1 ion channel = target: T1, TREK-1 ion channel (Homo sapiens, UniProt O95069); assay: Whole-cell membrane clamp recording of TREK-1 channel current in transfected CHO-K1 cells; type: cell-based
T1 construct: expressed in transfected cells; host or cells: CHO-K1
T1 sequence (O95069 1-426): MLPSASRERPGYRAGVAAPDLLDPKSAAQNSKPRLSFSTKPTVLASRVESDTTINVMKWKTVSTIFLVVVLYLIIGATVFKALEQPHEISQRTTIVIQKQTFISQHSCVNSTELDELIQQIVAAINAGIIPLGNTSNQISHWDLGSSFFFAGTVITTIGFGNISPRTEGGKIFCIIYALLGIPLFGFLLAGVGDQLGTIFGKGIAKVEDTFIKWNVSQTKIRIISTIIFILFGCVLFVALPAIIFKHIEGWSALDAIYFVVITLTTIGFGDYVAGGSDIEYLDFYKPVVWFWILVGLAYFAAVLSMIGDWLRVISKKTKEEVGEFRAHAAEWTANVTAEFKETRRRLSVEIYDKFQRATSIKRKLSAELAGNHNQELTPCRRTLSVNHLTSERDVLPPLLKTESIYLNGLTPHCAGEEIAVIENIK
Description: Cells were transfected using a cationic liposome transfection method, and the target gene TREK-1 plasmid protein was heterologously expressed in CHO-K1 cells according to the operating standard instructions of Lipo3000 transfection reagent. The ion channel protein was expressed in the cells for 24-48 h followed by electrophysiological experiments.
Whole-cell membrane clamp recording mode was used for electrophysiological experiments. The transfected cells were placed in a bath containing extracellular fluid, the resistance of the drawn electrode is 3-7 MΩ, the electrode was filled with intracellular fluid, the polished electrode was used to contact the cell membrane, the positive voltage was removed and the negative voltage was gently applied to form a high impedance seal, and then the cell membrane was broken by continuing to apply negative voltage, i.e. whole-cell recording mode was formed. The sampling frequency of the electrophysiological amplifier was 10 kHz, and the data sampling was controlled using a DigiData 1440A conversion interface. The software used for collecting and analyzing whole-cell recording experimental data is Clamfit 10.7, the software used for data analysis and graphing is Origin 8.1, and the software used for statistical analysis is SPSS.
CLA096: Three doses were set up in this example. The drug was firstly dissolved in DMSO and then diluted with tri-distilled water to […]: 5 µM, 10 µM and 20 µM, respectively.
The experiment was performed using a cell membrane clamp method to record the current of TREK-1 ion channel in whole cells. Protocol A0 was chosen to record the currents of cells at -80 mV, -60 mV, -40 mV, -20 mV, 0 mV, 20 mV, 40 mV, 60 mV and 80 mV, and Protocol A0 was repeated with different concentrations such as 5 µM, 10 µM and 20 µM of CLA096 being perfused, respectively. After administration, whether it can be eluted was tested.

C57 mice [4] = assay: Novelty-suppressed feeding experiment in normal mice; type: in vivo; details: C57 male mice, intraperitoneal
Description: Novelty-suppressed feeding experiment (NSF) is a conflict between feeding occurred in a novel environment in a state of starvation after fasting and fear of novel environment. Long-term administration of antidepressant drugs can reduce the conflict response ability of animals, which is manifested by shortened incubation period of the start of feeding. This model is currently widely used in the evaluation of antidepressant and anti-anxiety efficacy.
The experimental equipment was a 35 cm*35 cm*30 cm (L*W*H) open box, which was overspread with substrate, and a white filter paper with a diameter of 5 cm was placed in the open box, and 2 pieces of food were placed in the middle of the filter paper. The animals were fasted for 12 h before the administration of the drug.
Two hours before the behavioral test, the animal were moved into the functional room for 2 h to acclimatize. […] The animal were placed from the edge of the experimental open box, and the animal were regarded as successful feeding if their mouths touched the food within 10 min, and then the animal were removed immediately and the time of successful feeding (i.e. Novelty latency) was calculated. The animal were then placed in the normal feeding cage and the time from placement to feeding (i.e. Habituation latency) was also calculated. […] The whole experiment was recorded by camera, and the data were processed and analyzed offline. […]

[5] = CLA096 5, 20, 40 mg/kg vs positive control fluoxetine

## CNCCC(Oc1ccc(C(F)(F)F)cc1)c1ccccc1 (stereo not drawn) [Fluoxetine, reference compound]
C57 mice [1]; fluoxetine 10 mg/kg (table says 20)
  immobility time in forced swimming test: significantly reduces the immobility time

## CN(C)CCCN1c2ccccc2CCc2ccccc21 [Imipramine]
SD rats [2]
  antidepressant effect in forced swimming: blocked
SD rats [2]; control (CON) group SD rats
  immobility time of forced swimming: significantly reduced the immobility time

## CNC1(c2ccccc2Cl)CCCCC1=O (stereo not drawn) [Ketamine]
SD rats [3]
  total movement distance in open field: no significant difference
SD rats [2]
  antidepressant effect in forced swimming: remained significant
SD rats [2]; control (CON) group SD rats
  immobility time of forced swimming: significantly reduced the immobility time

## CN(Cc1ccccc1)C(=O)CN(c1ccc(Cl)cc1)S(C)(=O)=O [CLA096, N-benzyl-2-(N-(4-chlorophenyl)methylsulfonylamino)-N-methylacetamide]
SD rats [3]
  total movement distance in open field: no significant difference
C57 mice [1]; [5]
  effect on forced swimming immobility time compared with fluoxetine: significantly better than fluoxetine
C57 mice [1]; CLA096 5, 20 and 40 mg/kg
  immobility time in forced swimming test: significantly reduces the immobility time of animals at all doses
mice
  body weight change: no significant changes in body weight
TREK-1 ion channel; 5 µM CLA096
  inhibition rate of TREK-1 channel open current: 0.75 ± 0.02
TREK-1 ion channel; 10 µM CLA096
  inhibition rate of TREK-1 channel open current: 0.55 ± 0.05
TREK-1 ion channel; 20 µM CLA096
  inhibition rate of TREK-1 channel open current: 0.59 ± 0.01
C57 mice [4]; [5]
  effect on feeding latency compared with fluoxetine: significantly better than fluoxetine
C57 mice [4]; CLA096 5, 20 and 40 mg/kg, compared with vehicle group
  latency of feeding of fasted mice (novelty-suppressed feeding): significantly reduced the latency value
SD rats [2]
  antidepressant effect in forced swimming: remained significant
SD rats [2]; control (CON) group SD rats
  immobility time of forced swimming: significantly reduced the immobility time
  swimming time in forced swimming: significantly increased the swimming time
